For experiment [1], the system named is IFN-α/pSTAT5 in CD3+ cells (human PBMC). Nature of the experiment: Inhibitory effect on expression of pSTAT5 in CD3+ cells using FACS detection (IFN-α stimulated). The format is cell-based. The settings on record: IFN-α 30 ng/ml. The method, then: Test Example 1: The Inhibitory Effect of Compounds on the Expression of pSTAT5 in CD3+Cells Using FACS Detection
• DMSO, Sigma, Cat #D2650-100 mL, stored at room temperature. • Perm buffer III, BD Biosciences, Cat #558050, stored at 4° C. • Lyse/Fix buffer, BD Biosciences, Cat #558049, stored at room temperature. • EDTA, Invitrogen, Cat #15575-038, stored at room temperature. • PBS, Hyclone, Cat #SH30256.01, stored at 4° C. • PE Mouse Anti-Human CD3, BD Biosciences, Cat #555333, stored at 4° C. • Mouse anti-human Phosphorylation-STAT5 (pY694) (Alexa Fluor® 647 Conjugate), BD Biosciences, Cat #562076, stored at 4° C. • IFN-α, Biolegend, Cat #592702
1) On the day of experiment, the compound was prepared into a 10 mM solution with DMSO, diluted to 1.5 mM in DMSO, and then diluted to 8 gradient concentrations in 3-fold dilutions.
2) 5 μL of the diluted compound was transferred into 120 ul of DPBS solution containing 0.1% BSA.
3) Positive and negative control groups were set up, with the addition of 0.2% DMSO to the positive and negative control groups.
1) Add 0.5 million and 67.5 uL of human PBMC cells to each well of the 96-well cell culture plate.
2) Add 3.5 uL of diluted compound and mix well.
3) Incubate in a 37° C. incubator for 60 minutes.
4) Dilute IFN-alpha in DPBS containing 0.1% BSA to 600 ng/mL, and dilute PE-anti-hCD3 antibody in DPBS containing 0.1% BSA to 3 fold. After the above incubation for 60-minute, add diluted PE-anti-hCD3 antibody at 5 uL per well and add diluted IFN-α at 4 uL per well, i.e., the final concentration of IFN-α per well was 30 ng/ml.
5) Incubate in a 37° C. incubator for 30 minutes.
6) Transfer all cells to a 96-well deep well plate and add 1 mL of 37° C. preheated lysis/fix buffer.
7) Incubate at 37° C. in dark for 10 minutes.
8) Centrifuge at 600 g for 5 minutes and then discard the supernatant. Wash by adding 1 mL of PBS for twice and centrifuge.
9) Add 1 mL of Perm buffer III to the cell precipitation.
10) Incubate at 4° C. in dark for 30 minutes.
11) Centrifuge at 600 g for 5 minutes and then discard the supernatant. Wash by adding 1 mL of PBS for twice and centrifuge.
12) Dilute APC anti-human pSTAT5 antibody in staining buffer for 200 fold, and add it to cell well at 100 uL per well and mix well.
13) Incubate at room temperature for 40 minutes.
14) Wash twice by adding staining buffer with 1 mL for each well, and centrifuge at 600 g for 5 minutes.
15) Discard the supernatant, and re-suspend the cell precipitation in 300 uL of staining buffer.
16) Sample and analyze in a flow cytometer to obtain the IC50 of the samples to be tested, Table 1.

Experiment [2] has as its target TYK2 (JH1) (Homo sapiens (Human), UniProt P29597). Nature of the experiment: Kinase (JH1) experiment, TYK2. The settings on record: kinase domain. The format is biochemical. As for the experimental part:
1.2. Kinase (JH1) Experiment Operation was as Follows:
1.2.1. Dissolve the compound with DMSO to a storage concentration of 10 mM.
1.2.2. Prepare a compound with a concentration of 100 times the final concentration in a compound dilution plate by diluting it from the highest concentration point for a total of 4 concentration points using a 27 times dilution method, and transfer it to the Echo plate.
1.2.3. Use an Echo instrument to pulse the compound from the Echo plate to a 384 experimental plate, thereby obtain the compound with 11 concentration points of the 3-fold dilution matrix.
1.2.4. Configure a 2× kinase working solution and add it to a 384-well experimental plate at 5 uL per well. Incubate the compound and the kinase at room temperature for 15 minutes.
1.2.5. Add 5 ul 2× substrate (containing ATP) to the 384 well plate.
1.2.6. Incubate at room temperature for 45 minutes.
1.2.7. Add the detection reagent mixture to the 384-well plate, centrifuge for 30 seconds, and incubate at room temperature for 60 minutes.
1.2.8. Read the signal values using Envision Microplate Reader (PerkinElmer).
1.3.1. Use XL-Fit software for data analysis to obtain IC50 of the compounds, see Table 2 for results.

One may read the IC50 as the concentration that gives 50% inhibition. A high value points to lower potency.

Sequence of TYK2 (JH1) (P29597 897-1176): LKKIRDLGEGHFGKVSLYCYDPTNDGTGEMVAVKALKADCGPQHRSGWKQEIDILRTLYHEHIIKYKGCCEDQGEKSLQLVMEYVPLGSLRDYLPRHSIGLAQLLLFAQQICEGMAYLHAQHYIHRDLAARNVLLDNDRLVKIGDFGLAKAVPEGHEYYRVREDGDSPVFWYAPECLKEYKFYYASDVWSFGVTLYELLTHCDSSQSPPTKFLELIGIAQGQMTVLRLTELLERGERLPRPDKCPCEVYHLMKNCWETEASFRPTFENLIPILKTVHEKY

As for `[2H]C([2H])([2H])NC(=O)c1nnc(NC(=O)[C@@H]2CC23CC3)cc1Nc1cccc(-c2ncn(C)n2)c1OC` [Compound 1R], the half-inhibitory concentration (IC50) in experiment [1] is 6.3 nM; in experiment [2] it was > 9950 nM.

For the compound `[2H]C([2H])([2H])NC(=O)c1nnc(NC(=O)[C@H]2CC23CC3)cc1Nc1cccc(-c2noc(COC)n2)c1OC` [Compound 3S], the IC50 in experiment [1] came to 22.8 nM.

As for `[2H]C([2H])([2H])NC(=O)c1nnc(NC(=O)[C@H]2CC23CC3)cc1Nc1nccc(-c2ncn(C)n2)c1OC` [Compound 2S], the 50% inhibitory concentration (IC50) is 3.9 nM in experiment [1] and > 9950 nM in experiment [2].

On to `[2H]C([2H])([2H])NC(=O)c1cnc(NC(=O)[C@@H]2CC23CC3)cc1Nc1cccc(-c2ncn(C)n2)c1OC` [Compound 4R], for which the IC50 is 5.3 nM in experiment [1] and > 9950 nM in experiment [2].

`[2H]C([2H])([2H])NC(=O)c1nnc(NC(=O)[C@@H]2CC23CC3)cc1Nc1nccc(-c2ncn(C)n2)c1OC` [Compound 2R]: the 50% inhibitory concentration (IC50) in experiment [1] was 5.7 nM; in experiment [2] it was > 9950 nM.

As for `[2H]C([2H])([2H])NC(=O)c1nnc(NC(=O)[C@H]2CC23CC3)cc1Nc1cccc(-c2ncn(C)n2)c1OC` [Compound 1S], the 50% inhibitory concentration (IC50) in experiment [1] is 4.2 nM; in experiment [2] it was > 9950 nM.

As for `[2H]C([2H])([2H])NC(=O)c1cnc(NC(=O)[C@H]2CC23CC3)cc1Nc1cccc(-c2ncn(C)n2)c1OC` [Compound 4S], the half-inhibitory concentration (IC50) in experiment [1] was 4.1 nM; in experiment [2], > 9950 nM.

For the compound `[2H]C([2H])([2H])NC(=O)c1nnc(NC(=O)C2CC23CC3)cc1Nc1nccc(-c2noc(COC)n2)c1OC` (centres unmarked) [Compound 5], the half-inhibitory concentration (IC50) in experiment [1] came to 13 nM.

The values are drawn from US20240376080A1, “COMPOUND AS TYK2/JAK1 PSEUDOKINASE DOMAIN INHIBITOR, AND SYNTHESIS AND USE METHODS” (ZHEJIANG WENDA PHARMACEUTICAL TECHNOLOGY CO., LTD., priority 2021, published 2024).
